Measurements published in patent US20070036793A1, “Methods for use of an lkb1/strad7mo25 complex” (priority 2003, published 2007).
Entries after “also recorded” stand apart in the source; their conditions may differ.

Legend:
AMPK [1] = target: T1, AMPK (Homo sapiens, UniProt Q13131); experiment: Activation and Thr-172 phosphorylation of endogenous AMPK in HeLa cells with or without stably expressed LKB1; type: cell-based; details: earlier unpublished results
T1 construct: Endogenous AMPK was immunoprecipitated from the cell extracts and assayed; endogenous in cells; host or cells: HeLa cells (control, or stably expressing wild type or kinase-dead LKB1)
T1 sequence (Q13131 whole entry): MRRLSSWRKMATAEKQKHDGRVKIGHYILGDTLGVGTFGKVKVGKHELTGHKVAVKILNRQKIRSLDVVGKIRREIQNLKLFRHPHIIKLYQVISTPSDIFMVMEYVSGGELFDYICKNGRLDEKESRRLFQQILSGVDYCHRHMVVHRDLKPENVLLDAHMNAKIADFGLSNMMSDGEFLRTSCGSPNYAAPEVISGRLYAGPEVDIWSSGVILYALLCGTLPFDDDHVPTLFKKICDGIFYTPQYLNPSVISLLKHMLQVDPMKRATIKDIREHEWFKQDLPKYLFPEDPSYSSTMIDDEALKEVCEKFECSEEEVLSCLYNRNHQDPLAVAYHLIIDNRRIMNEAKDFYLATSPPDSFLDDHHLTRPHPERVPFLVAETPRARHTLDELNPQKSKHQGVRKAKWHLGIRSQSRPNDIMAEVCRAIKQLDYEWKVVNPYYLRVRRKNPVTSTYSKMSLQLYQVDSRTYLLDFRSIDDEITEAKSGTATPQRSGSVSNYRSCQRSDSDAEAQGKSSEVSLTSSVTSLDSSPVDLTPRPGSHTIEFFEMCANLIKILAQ
T1 sequence (Q9Y478 2-270 partner limits assumed): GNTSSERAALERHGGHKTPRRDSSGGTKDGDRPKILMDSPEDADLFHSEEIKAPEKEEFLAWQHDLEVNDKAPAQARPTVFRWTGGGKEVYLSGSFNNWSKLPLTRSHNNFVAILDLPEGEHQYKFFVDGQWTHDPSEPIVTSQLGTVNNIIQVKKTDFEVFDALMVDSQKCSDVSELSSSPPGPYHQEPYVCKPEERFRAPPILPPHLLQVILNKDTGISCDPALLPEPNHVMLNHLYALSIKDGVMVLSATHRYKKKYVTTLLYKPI
T1 sequence (P54619 whole entry partner): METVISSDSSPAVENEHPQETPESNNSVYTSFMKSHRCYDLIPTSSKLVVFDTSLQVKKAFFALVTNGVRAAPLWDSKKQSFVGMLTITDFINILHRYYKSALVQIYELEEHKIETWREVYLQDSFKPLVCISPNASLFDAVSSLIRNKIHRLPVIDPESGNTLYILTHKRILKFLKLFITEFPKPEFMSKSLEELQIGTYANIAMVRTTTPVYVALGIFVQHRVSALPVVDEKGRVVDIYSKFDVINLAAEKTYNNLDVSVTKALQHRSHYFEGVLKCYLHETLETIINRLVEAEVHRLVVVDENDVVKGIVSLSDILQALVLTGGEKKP

AMPK [2] = target: T1, AMPK; experiment: as above; type: cell-based; details: 2 mM AICA riboside or 10 mM phenformin, 60 min
Experimental: FIG. 18: Restoration of the ability of AMPK to be activated by AICA riboside and phenformin in HeLa cells by expression of LKB1. Control HeLa cells (lanes 1, 2, 3), HeLa cells expressing wild type (WT) LKB1 (lanes 4, 5, 6) and kinase dead (D194A, KD) mutant LKB1 (lanes 7, 8, 9) were either left unstimulated or treated with 2 mM AICA riboside or 10 mM phenformin for 60 min and lysed. (A) Endogenous AMPK was immunoprecipitated from the cell extracts and assayed. (B) The cell lysates was immunoblotted with antibodies recognising AMPKα1 phosphorylated at Thr172 or total AMPKα1; the results were analysed using the LI-COR IR Odyssesy™ imager as described under Materials and Methods, and are expressed as a ratio of the two signals. (C) The cell lysates was analysed by Western blotting and the membranes probed with antibodies recognising ACC phosphorylated at Ser-79, or streptavidin to determine total […]. The results were analysed using the LI-COR IR imager as for (B).
AMPK [14]and AMPKK [34] were assayed, and units defined, as described previously. Rapid lysis of cells for AMPK assays was as described previously. Assays were carried out in triplicate and results are expressed as mean ± standard deviation.
To analyse phosphorylation of ACC, samples were analysed by SDS-PAGE, transferred to nitrocellulose (BioRad) and incubated in Odyssey™ Blocking buffer containing 0.2% Tween-20 for 1 h. Anti-pACC antibody (1.46 μg/ml in blocking buffer) was then added and left shaking for 1 h. The membranes were washed 6×5 min with TBS (10 mM Tris-HCl, pH 7.4, 0.5M NaCl) plus Tween-20 (0.2%). The membranes were immersed in blocking buffer containing 0.2% Tween-20 and 1 μg/ml anti-sheep IgG conjugated to JR dye 680 (Molecular Probes, Leiden, The Netherlands) and 1 μg/ml streptavidin conjugated to IR Dye 800 (Rockland Inc., Philadelphia, Pa.) and left shaking for 1 h, protected from light. The membranes were then washed 6×5 min using TBS-Tween (0.2%) and 1×5 min in PBS. The membranes were scanned in two different channels using the Odyssey™ IR imager, the results quantified using Odyssey™ software and expressed as a ratio of the signal obtained with the pACC antibody to that obtained with streptavidin. Analysis of phosphorylation of GST-α1 catalytic domain was similar except that the 4-12% Bis-Tris gels were used, and the membranes were simultaneously probed for 1 h with the sheep anti-pT172 and anti-AMPKα1-catalytic domain antibodies, directly labelled with the IR dye 680 and IR Dye 800 respectively, according to manufacturers' instructions.

[3] = test system: AMPK-related kinases (NUAK2, QIK, QSK, SIK, MARK1, MARK2/3, MARK4); experiment: Activity of endogenous AMPK-related kinases immunoprecipitated from HeLa cells after phenformin; type: cell-based, human; details: HeLa cells (control, wild type or kinase inactive LKB1), 10 mM phenformin, 1 h
Experimental: FIG. 29. Activity of AMPK-related kinases In HeLa cells. […] AMPKα1 and AMPK-related kinases were immunoprecipitated from the cell lysates, and in vitro kinase activity towards the AMARA peptide was measured as described in Materials and Methods (Example 4). To confirm equal expression of the kinases in each sample, cell lysates (AMPKα1, MARK2/3 and MARK4) or immunoprecipitated proteins (NUAK2, QIK, QSK, SIK and MARK1) were subjected to SDS-PAGE and western immunoblot analysis. All AMPK-related kinases migrated with the expected molecular mass. In the case of AMPKα1, cell lysates were immunoblotted with a pThr172 antibody (P-AMPK), that recognises the phosphorylated T-loop. Results shown are average + SD of 2-4 assays and are representative of at least two independent experiments.
Cell culture, stimulation and cell lysis. […] Protein concentrations were determined by the Bradford method with bovine serum albumin as the standard (Bradford, 1976).
0.1-1 mg of Hela or MEF lysate protein was incubated at 4° C. for 1 h on a shaking platform with 5 μg of the corresponding antibody, which had been previously conjugated to 5 μl of protein G-Sepharose. The immunoprecipitates were washed twice with 1 ml of Lysis Buffer containing 0.5 M NaCl, and twice with 1 ml of Buffer A. Phosphotransferase activity towards the AMARA peptide was then measured in a total assay volume of 50 μl as described above.

AMPK [4] = experiment: AMPK activation by drugs in other cell types; type: cell-based
[5] = HeLa cells stably expressing wild type LKB1
[6] = control HeLa cells not expressing LKB1

Structure (SMILES)	activation of AMPK (AMPK [1])	activation of AMPK (AMPK [2]; [5])	phosphorylation of Thr-172 on the AMPKα subunit (AMPK [2]; [5])	activation of AMPK (AMPK [2]; [6])	activity of AMPK-related kinases [3]	activation of AMPK compared with metformin (AMPK [4])
NC(=O)c1ncn([C@@H]2O[C@H](CO)[C@@H](O)[C@H]2O)c1N [AICA riboside, 5-aminoimidazole-4-carboxamide (AICA) riboside]	not activated	robust activation	restored	neither AICA riboside nor phenformin activated AMPK		
[H]/N=C(/N)N/C(=N/[H])NCCc1ccccc1 [phenformin]		robust activation; also recorded: larger activation of AMPK	restored	neither AICA riboside nor phenformin activated AMPK	none of the AMPK-related kinases were significantly activated	more rapidly and more potently than metformin
